Consider twelve molecules from patent US12264148B2, “Ivosidenib forms and pharmaceutical compositions” (Servier Pharmaceuticals LLC, priority 2018, dated 2025).

≈ marks a conversion by molar mass, not a printed value.

The subject of data set [1] is bacterial reverse mutation. To be noted: Registered substances; cited from earlier work.
The next data set deals with mutant IDH1 (mIDH1). To be noted: cited from earlier work.
A further data set relates to mutant IDH1 proteins. To be noted: U.S. Publication No. 2013/0190249 A1; cited from earlier work.
A short description of data set [2]: Approximate solubility of ivosidenib freebase in 20 solvent systems at RT. It is filed as physicochemical. The protocol: Approximate solubility of ivosidenib freebase was determined in 20 solvent systems at RT. In the experiment, ˜2 mg of ivosidenib was added into a 3-mL glass vial, followed by the addition of corresponding solvent. The solvent was added by 100 μL step wise until the solution was visually clear or a total volume of 2 mL was reached. This solubility information was used to select solvents for the polymorph screening.

Data set [3] in a line: Solubility of solid state forms in methanol. The format is physicochemical.
The nature of data set [4]: Solubility in 5:95 v/v iPrOAc:heptane slurry. The conditions noted are these: remained a thick slurry. It is filed as physicochemical.
For data set [5] the following is noted: potential impurities of ivosidenib drug substance; cited from earlier work.
The nature of data set [6]: Dissolution of 250 mg tablets spiked with crystalline form, Medium B (pH 6.8, 0.4% SDS). The format is physicochemical. To be noted: 250 mg tablets vs target (nominal) formulation. An excerpt: (§1) In order to assess the impact of crystalline polymorphic forms on dissolution profiles, variant tablets were manufactured with SDI spiked with drug substance of two different crystalline polymorphs: Form B, and Form L, which forms are as described above. As used herein, the term “spiked” or “spiking” is used consistently with usage in the field of pharmaceutical manufacturing, namely the introduction of a particular form to the crystallization solution to encourage nucleation and growth. These forms were selected because it was determined that if an SDI should crystallize, these two forms would be most likely to be present. However, it is noted that the SDI can be reliably made in completely amorphous form, with no detectable crystalline form present even under stressed conditions.
250 mg tables were manufactured by adding 50 mg (20% w/w) of crystalline Form L or Form B with the ivosidenib SDI (therefore, amorphous SDI was present at 80% w/w as a measure of the active ingredient.)
Similar dissolution studies were undertaken with Medium B (pH 6.8, 0.4% SDS). Similarity factors (f2) were calculated to assess the dissolution profiles, compared to a target formulation. The similarity factors are included in Table 21.

Data set [7] in a line: Dissolution of 250 mg tablets spiked with crystalline form, Medium A (pH 6.8, 0.6% SDS). It is filed as physicochemical. The conditions noted are these: 250 mg tablets vs target (nominal) formulation.
From the text: as §1
250 mg tables were manufactured by adding 50 mg (20% w/w) of crystalline Form L or Form B with the ivosidenib SDI (therefore, amorphous SDI was present at 80% w/w as a measure of the active ingredient.) […]
Similar dissolution studies were undertaken with Medium B (pH 6.8, 0.4% SDS). Similarity factors (f2) were calculated to assess the dissolution profiles, compared to a target formulation. […]

Another data set relates to mutant IDH2 (mIDH2). The conditions noted are these: tool compound; Rohle et al. Science 2013; cited from earlier work.
A further data set has as its system mIDH1-driven gliomas. To be noted: some model systems; Rohle et al. Science 2013; cited from earlier work.
Data set [8] can be described thus: Competitive slurries of Form L, Form M and Form N. It is filed as physicochemical. To be noted: Form L, N in dichloromethane, heptane, tBME, acetone, ambient or 35/50 °C. The protocol: The temperature was increased to 70° C. to dissolve material. Anti-solvent addition (60 mL heptane) at 60 mL/h was carried out at 70° C. Once the anti-solvent addition was complete, the reaction was cooled to 60° C. and seeded with 0.63 g of Form B ivosidenib, which was stirred at 60° C. for 4 h then cooled to 15° C. over 10 h. An anti-solvent addition was started (308 mL heptane) at 75 mL/h, 15° C., 200 rpm. When the anti-solvent addition finished, the mixture was stirred at 15° C. for 2 h then isolated solid through filtration using a Buchner funnel (120 mm Ø) and washed with 246 mL of iPrOAc:heptane (1:1 v/v). In isopropyl acetate:heptane 5:95 v/v, Form N was retained, while in isopropyl acetate:heptane 20:80 v/v, a mixture of Form B and Form N was obtained.
The following procedure was followed for competitive slurry trials of the Form L, Form M, and Form N polymorphs: Approximately 50 or 75 mg of each different solid form was weighed out into 1.5 mL screw-cap vials. […]
Aliquots (100 μL or 25 μL) of appropriate solvent added as required to obtain a mobile slurry which was then stirred at either ambient (ca. 23° C.) or elevated (35 or 50° C.) temperature for ca. 21 or 68.5 h (see Table 4 for details). Solids were isolated solid by centrifugation and analyzed by XRPD. […]

Data set [9] deals with bacterial reverse mutation. Description: In vitro bacterial reverse mutation assay (Ames).

Turning to `Clc1ccccc1C(Cl)Cl` [1-chloro-2-(dichloromethyl)benzene], the “Ames result reported by ECHA” value in [1] is listed as “Ames-negative”.
For `N#Cc1ccnc(N2C(=O)CC[C@H]2C(=O)N(c2cncc(F)c2)[C@H](C(=O)NC2CC(F)(F)C2)c2ccccc2Cl)c1` [ivosidenib, (S)—N—((S)-1-(2-Chlorophenyl)-2-(3,3-difluorocyclobutylamino)-2-oxoethyl)-1-(4-cyanopyridin-2-yl)-N-(5-fluoropyridin-3-yl)-5-oxopyrrolidine-2-carboxamide], the “inhibition of mutant IDH1 proteins in biochemical assays” value in the data set on mutant IDH1 (mIDH1) (U.S. Publication No. 2013/0190249 A1) is on record as “inhibitor”. The “inhibition of mutant IDH1 proteins in cellular assays” value in the data set on mutant IDH1 proteins was “inhibitor”. Also, the “Solubility (mg/mL)” value in data set [2] (Acetic acid, RT) was 40.4~20.2 mg/mL; in [2] (DMSO, RT) it was 46.6~23.2 mg/mL; in data set [2] (IPA, RT), 38.8~19.4 mg/mL; in [2] (IPAC, RT), 40.2~20.1 mg/mL; in data set [2] (MIBK, RT) it was 18.6~12.0 mg/mL; in data set [2] (Toluene, RT) it was 18.6~12.4 mg/mL. The solubility (in general, how much of the substance goes into solution per volume) in data set [2] (organic solvent or mixture, thermodynamic from solid, 1,4-Dioxane, RT) is more than 41.6 mg/mL; in data set [2] (organic solvent or mixture, thermodynamic from solid, 2-MeTHF, RT), more than 41.4 mg/mL; in data set [2] (organic solvent or mixture, thermodynamic from solid, ACN, RT), more than 36.8 mg/mL; in data set [2] (organic solvent or mixture, thermodynamic from solid, Acetone, RT), more than 36.4 mg/mL; in data set [2] (organic solvent or mixture, thermodynamic from solid, CHCl3, RT), more than 38.2 mg/mL; in data set [2] (organic solvent or mixture, thermodynamic from solid, DMA, RT), more than 24.5 mg/mL. Also, the solubility was more than 41.8 mg/mL in data set [2] (organic solvent or mixture, thermodynamic from solid, EtOAc, RT); more than 39.4 mg/mL in data set [2] (organic solvent or mixture, thermodynamic from solid, EtOH, RT); less than 0.95 mg/mL in data set [2] (organic solvent or mixture, thermodynamic from solid, Heptane, RT); more than 37.8 mg/mL in data set [2] (organic solvent or mixture, thermodynamic from solid, MTBE, RT); more than 47.6 mg/mL in data set [2] (organic solvent or mixture, thermodynamic from solid, MeOH, RT); more than 42 mg/mL in data set [2] (organic solvent or mixture, thermodynamic from solid, NMP, RT). Also, the solubility is more than 39 mg/mL in data set [2] (organic solvent or mixture, thermodynamic from solid, THF, RT) and less than 1.26 mg/mL in data set [2] (water, thermodynamic from solid, H2O, RT).
As for `ClCc1ccccc1Cl` [2-chlorobenzyl chloride], the “Ames result reported by ECHA” value in data set [1] is listed as “Ames-negative”.
Consider `N#Cc1ccnc(N2C(=O)CC[C@H]2C(=O)N(c2cncc(F)c2)[C@H](C(=O)NC2CC(F)(F)C2)c2ccccc2Cl)c1` [Form M], for which the solubility in methanol in data set [3] was 109 mg/mL (≈ 187 mM). The solubility in data set [3] (organic solvent or mixture, thermodynamic from solid, compared with ~70 mg/mL AG-120 in the SDI spray solution, read-out: solubility) was approximately 110 mg/mL (≈ 189 mM). In data set [4], the “solubility in 5:95 v/v iPrOAc:heptane” value is reported as “poorly soluble”.
With `ClCc1ccccc1` [benzyl chloride], the “mutagenicity according to literature” value in [5] is given as “known mutagens”.
As for `c1ccccc1` [benzene], the “mutagenicity according to literature” value in data set [5] was “known mutagens”.
Take `N#Cc1ccnc(N2C(=O)CC[C@H]2C(=O)N(c2cncc(F)c2)[C@H](C(=O)NC2CC(F)(F)C2)c2ccccc2Cl)c1` [Form B]: in [6], the “Similarity factor (f2) result for dissolution medium B” value came out at 43.1. In addition, in [7], the “Similarity factor (f2) result for dissolution medium A” value was determined as 26.0.
On to `Cc1ccccc1C(C(=O)NC1CCCCC1)N(C(=O)Cn1ccnc1C)c1cccc(F)c1` (stereo not drawn) [AGI-5198], for which, in the data set with mutant IDH1 (mIDH1) (tool compound, Rohle et al. Science 2013), the “inhibition of mutant IDH1” value is “inhibit mutant IDH1 (mIDH1)”. In addition, in the data set on mutant IDH2 (mIDH2), the “inhibition of mutant IDH2” value is “not mutant IDH2 (mIDH2)”. Besides, in the data set with mIDH1-driven gliomas, the “growth of mIDH1-driven gliomas” value is reported as “repress growth”.
With `O=Cc1ccccc1` [benzaldehyde], the “mutagenicity according to literature” value in data set [5] is recorded as “known mutagens”.
With `N#Cc1ccnc(N2C(=O)CC[C@H]2C(=O)N(c2cncc(F)c2)[C@H](C(=O)NC2CC(F)(F)C2)c2ccccc2Cl)c1` [Form N], the solubility was approximately 110 mg/mL (≈ 189 mM) in data set [3] (compared with ~70 mg/mL AG-120 in the SDI spray solution) and 113 mg/mL (≈ 194 mM) in data set [3] (organic solvent or mixture, thermodynamic from solid, read-out: solubility in methanol). In data set [4], the “solubility in 5:95 v/v iPrOAc:heptane” value is “poorly soluble”. Further, the “most stable anhydrous form in competitive slurries” value in data set [8] is listed as “stable anhydrous form”.
For `Fc1cncc(/N=C/c2ccccc2Cl)c1` [(E)-1-(2-chlorophenyl)-N-(5-fluoropyridin-3-yl) methanimine], in data set [9], the Ames test result is “negative”.
Turning to `N#Cc1ccnc(N2C(=O)CC[C@H]2C(=O)N(c2cncc(F)c2)[C@H](C(=O)NC2CC(F)(F)C2)c2ccccc2Cl)c1` [Form L], the “Similarity factor (f2) result for dissolution medium B” value in data set [6] was 48.5. Moreover, in data set [7], the “Similarity factor (f2) result for dissolution medium A” value was found to be 28.9.
